Legend:
[1] = Solubility; type: physicochemical

Structure (SMILES) | solubility [1] | melting point
CC(C)(O)CC[C@H](C[C@H](O)[C@H](Cc1cccs1)NC(=O)c1cnc2ccccc2n1)C(N)=O [Example 313, Quinoxaline-2-carboxylic Acid (4(r)-carbamoyl-2(s),7-dihydroxy-7-methyl-1(s)-thiophen-2-ylmethyl-octyl)-amide] | > 250 mg/mL | 
CNC(=O)[C@H](CC(C)C)C[C@H](O)[C@H](Cc1ccc(OCc2ccccc2)cc1)NC(=O)c1cnc2ccccc2c1 [Example 40, Quinoline-3-carboxylic acid [1(S)-(4-benzyloxy-benzyl)-2(S)-hydroxy-6-methyl-4(R)-methylcarbamoyl-heptyl]-amide] |  | 178 to 179 °C
CC(C)(F)CC[C@H](C[C@H](O)[C@H](Cc1ccccc1)NC(=O)c1cnc2ccccc2n1)C(=O)NCCc1ccc(O)cc1 [Example 212, Quinoxaline-2-carboxylic acid {1(S)-benzyl-7-fluoro-2(S)-hydroxy-4(R)-[2-(4-hydroxy-phenyl)-ethylcarbamoyl]-7-methyl-octyl}-amide] |  | 138 to 140 °C
CC(C)(O)CC[C@H](C[C@H](O)[C@H](Cc1ccccc1F)NC(=O)c1cnc2ccccc2n1)C(N)=O [Example 321, Quinoxaline-2-carboxylic acid [4(R)-carbamoyl-1(S)-(2-fluoro-benzyl)-2(S),7-dihydroxy-7-methyl-octyl]-amide] |  | 147 to 148 °C
NC(=O)[C@@H](C[C@H](O)[C@H](Cc1ccccc1)NC(=O)c1cnc2ccccc2n1)C1CCCCCC1 [Example 181, Quinoxaline-2-carboxylic acid (1(S)-benzyl-4(S)-carbamoyl-4-cycloheptyl-2(S)-hydroxy-butyl)-amide] |  | 216 to 217 °C
O=C(N[C@@H](Cc1ccccc1)[C@@H](O)C[C@H](C(=O)NO)C1(O)CCCCCC1)c1cnc2ccccc2n1 [Example 291, Quinoxaline-2-carboxylic acid [1(S)-benzyl-2(S)-hydroxy-4(S)-hydroxycarbamoyl-4-(1-hydroxy-cycloheptyl)-butyl]-amide] |  | 118 to 119 °C

— US20040087571A1, “Methods of using CCR1 antagonists as immunomodulatory agents” (Pfizer Inc, priority 2002, published 2004)
